Assay results: patent US20070118999A1, “Compositions suitable for the treatment of hair comprising chelants and methods for reducing oxidative hair damage” (The Procter & Gamble Company, priority 2001, published 2007)

Experiments:
[1] = Hydrogen Peroxide Decomposition Ratio Measurement Protocol
Method: The Hydrogen Peroxide Decomposition Ratio Measurement Protocol is defined as follows: 6.0% by weight of concentrated ammonium hydroxide (30% active ammonia) is added to deionised water and the pH of the solution is adjusted to 10 using acetic acid. 300 ppm of copper sulphate and 0.026M of the chelant to be tested are added to said composition. […] The initial level of hydrogen peroxide is measured at this moment (t=0); the final level of hydrogen peroxide is measured after 30 minutes. The value of the ratio of the hydrogen peroxide concentration at t=0 and at t=30 mn is the Hydrogen Peroxide Decomposition Ratio (% Loss).
The initial and final level of hydrogen peroxide can be measured according to any standard technique. The following is a well-known and standard technique that was used by the inventors: 0.2-0.3 g (the exact quantity being precisely measured) of the solution to be titrated is added to 40 ml of 10% acetic acid. […] The level of hydrogen peroxide (% Peroxide) is then calculated from the following equation: [formula]
Three replicate runs are made at both t=0 and t=30 mn and then averaged to calculate the Hydrogen Peroxide Decomposition Ratio (% Loss).

[2] = 5-Cycle Oxidative Hair Treatment Protocol with FT-IR Damage Assessing Protocol; parameters: species or system human; conditions: for oxidative hair damage prevention (in words): real conditions of use: pH 10, non-deionized water with Cu^2+ and Ca^2+; for Damage after 5 cycles (cysteic acid units) / Damage benefit vs EDTA 2%: 5 bleaching cycles, pH 10, 1.9% EDDS, 2.0% HEDP, 2.65% DTPA, 3.8% DTPMP; for Damage after 5 cycles (cysteic acid units): 2% EDTA, sodium salts used
Method: A bleaching composition comprising the chelant to be tested is prepared by mixing in equal weight amounts a hydrogen peroxide emulsion base and an alkaline (high pH) emulsion base. The hydrogen peroxide emulsion base contains: […] 2 g of the bleaching composition per g of hair to be treated was applied on the hair switches and massaged in thoroughly. The hair switches were then wrapped in a plastic film and put in an oven at 30° C. […] The excess water was then squeezed out of the hair, and the hair dried with a fan. […] Prell® shampoo was using during these tests. This Oxidative Hair Treatment Protocol can be repeated several times. When damage is measured according to the FT-IR Damage Assessing Protocol (described below) the Oxidative Hair Treatment Protocol is preferably repeated 5 times and this process is described as a 5-Cycle Oxidative Hair Treatment Protocol. Damage caused to the hair was assessed by the FT-IR (Fourier Transform Infrared) method, which has been established to be suitable for studying the effects of oxidative treatments on hair (Strassburger, J., J. Soc. Cosmet. Chem., 36, 61-74 (1985); Joy, M. & Lewis, D. M., Int. J. Cosmet. Sci., 13, 249-261 (1991); Signori, V. & Lewis, D. M., Int. J. Cosmet. Sci., 19, 1-13 (1997)). In particular, these authors have shown that the method is suitable for quantifying the amount of cysteic acid that is produced from the oxidation of cystine. In general, the oxidation of cystine is thought to be a suitable marker by which to monitor the overall oxidation of the keratinous part of the fiber. Signori & Lewis (D. M., Int. J. Cosmet. […] They have shown that this technique is more suitable than using the FT-IR method in simple transmission or microscope modes. […] The detailed description of the method used for testing the different damage inhibitors follows thereafter: […] In this method, hair switches of various sizes and colours can be used. The switches were […] per cm) in order to minimize variations in surface area of contact between readings. The Oxidative Hair Treatment Protocol described above was repeated for 5 cycles to mimic the behavior of hair after repeated bleaching cycles. Following this treatment, four readings per switch were taken ( 1/3 and 2/3s down the switch on both sides), and an average calculated. Backgrounds were collected every 4 readings, and an ATR cell pressure of IN/m was employed. The cell was cleaned with ethanol between each reading, and a contamination check performed using the monitor ratio mode of the instrument. As prescribed by Signori & Lewis in 1997, a normalized double derivative analysis routine was used. […] This normalized absorbance was then twice derivatised using a 13 point averaging. […] The following instrumental conditions were employed: […] The corresponding weight percentage is indicated in the first line of the table below. The tri-sodium salt of EDDS, tetra-sodium salt of EDTA, di-sodium salt of HEDP, penta-sodium salt of DTPA and tetra-sodium salt of DTPMP were used. EDTA and DTPA are commonly used in hair care compositions. HEDP was cited in U.S. Pat. […] DPTMP is another phosphonate chelant. […] Damage and lightening effects were assessed after 5 cycles according to the test method described above (“Oxidative hair treatment protocol”). Human hair is often bleached or dyed 5 times or more during its life, which makes this 5 cycle test very meaningful.

[3] = 1:1 complexes, fully deprotonated chelants; 25deg, 0.1M ionic strength; cited from earlier work
[4] = 1:1 complexes, fully deprotonated chelants; 25deg, 0.1M ionic strength; cited from earlier work; remark: listed apart in the source
[5] = log Conditional Stability Constant at pH 10 with Cu; format: physicochemical
Description: The Conditional Stability Constant is a parameter commonly used in the art to practically assess the stability of metal-chelant complex at a given pH.

Compound | capacity at inhibiting the red-ox chemistry of copper (in words) [1] | oxidative hair damage prevention (in words) [2] | log K Cu [3] | log K Ca [4] | Ratio Cu/Ca (log KCuL/log KCaL) [5] | Hydrogen Peroxide Decomposition Ratio (% Loss) ([1]; pH 10, 300 ppm copper sulphate, 0.026M chelant, 30 minutes) [%] | Damage after 5 cycles (cysteic acid units) [2] [cysteic acid units] | Damage benefit vs EDTA 2% [2] | log Conditional Stability Constant (pH 10) Cu [5]
O=C(O)CN(CCN(CC(=O)O)CC(=O)O)CC(=O)O [EDTA, ethylenediaminetetraacetic acid] | very good capacity at inhibiting the red-ox chemistry of copper | very poor damage prevention properties | 18.78 | 10.65 | – | – | – | – | –
O=C(O)CC(NCCNC(CC(=O)O)C(=O)O)C(=O)O (stereo not drawn) [EDDS, ethylenediamine-N,N′-disuccinic acid] | – | much less damage than hair treated with any other chelant | 18.35 | 4.58 | 3.76 | 1.5 | 110 | +33% | –
diethylenetriaminepentaacetate [DTPA] | – | – | 21.4 | 10.75 | 1.85 | – | 147 | +11% | 18.78
O=P(O)(O)CN(CCN(CP(=O)(O)O)CP(=O)(O)O)CCN(CP(=O)(O)O)CP(=O)(O)O [DTPMP, diethylenetriamine-N,N,N′,N″,N″-penta(methylene phosphonate)] | – | – | 19.5 | 7.1 | – | – | – | +14% | –
CC(O)(P(=O)(O)O)P(=O)(O)O [HEDP, 1-hydroxyethane-1,1-diphosphonic acid] | – | – | 11.84 | 6.0 | 1.75 | – | – | +1% | –
